Patent US8663912B2, “Fluorogenic substrate for ADAMTS13” (Washington University, priority 2011, dated 2014)
* marks the point of attachment. X1 = CC1(C)C(/C=C/C2=C(Cl)C(=C/C=C3/N(CCCCCC(=O)*)c4ccc5cc(S(=O)(=O)O)ccc5c4C3(C)C)/CCC2)=[N+](CCCS(=O)(=O)[O-])c2ccc(N(CCCS(=O)(=O)O)CCCS(=O)(=O)O)cc21; X2 = CC(C)(C)c1cc(/C=C/C=C2\N(CCCS(=O)(=O)O)c3ccc(S(=O)(=O)O)cc3C2(C)CCCC(=O)CCN2C(=O)CC(*)C2=O)c2ccc(N(CCCS(=O)(=O)[O-])CCCS(=O)(=O)O)cc2[o+]1

How the values were obtained:
Format in all cases: biochemical
[1] = target: T1, plasma ADAMTS13 (Homo sapiens, UniProt Q76LX8); experiment: Kinetics of FRETS-rVWF71 cleavage by plasma ADAMTS13 (Michaelis-Menten)
T1 construct: from tissue; host or cells: human plasma or serum (pooled normal plasma, healthy donors, TTP patients)
T1 sequence (Q76LX8 75-1427): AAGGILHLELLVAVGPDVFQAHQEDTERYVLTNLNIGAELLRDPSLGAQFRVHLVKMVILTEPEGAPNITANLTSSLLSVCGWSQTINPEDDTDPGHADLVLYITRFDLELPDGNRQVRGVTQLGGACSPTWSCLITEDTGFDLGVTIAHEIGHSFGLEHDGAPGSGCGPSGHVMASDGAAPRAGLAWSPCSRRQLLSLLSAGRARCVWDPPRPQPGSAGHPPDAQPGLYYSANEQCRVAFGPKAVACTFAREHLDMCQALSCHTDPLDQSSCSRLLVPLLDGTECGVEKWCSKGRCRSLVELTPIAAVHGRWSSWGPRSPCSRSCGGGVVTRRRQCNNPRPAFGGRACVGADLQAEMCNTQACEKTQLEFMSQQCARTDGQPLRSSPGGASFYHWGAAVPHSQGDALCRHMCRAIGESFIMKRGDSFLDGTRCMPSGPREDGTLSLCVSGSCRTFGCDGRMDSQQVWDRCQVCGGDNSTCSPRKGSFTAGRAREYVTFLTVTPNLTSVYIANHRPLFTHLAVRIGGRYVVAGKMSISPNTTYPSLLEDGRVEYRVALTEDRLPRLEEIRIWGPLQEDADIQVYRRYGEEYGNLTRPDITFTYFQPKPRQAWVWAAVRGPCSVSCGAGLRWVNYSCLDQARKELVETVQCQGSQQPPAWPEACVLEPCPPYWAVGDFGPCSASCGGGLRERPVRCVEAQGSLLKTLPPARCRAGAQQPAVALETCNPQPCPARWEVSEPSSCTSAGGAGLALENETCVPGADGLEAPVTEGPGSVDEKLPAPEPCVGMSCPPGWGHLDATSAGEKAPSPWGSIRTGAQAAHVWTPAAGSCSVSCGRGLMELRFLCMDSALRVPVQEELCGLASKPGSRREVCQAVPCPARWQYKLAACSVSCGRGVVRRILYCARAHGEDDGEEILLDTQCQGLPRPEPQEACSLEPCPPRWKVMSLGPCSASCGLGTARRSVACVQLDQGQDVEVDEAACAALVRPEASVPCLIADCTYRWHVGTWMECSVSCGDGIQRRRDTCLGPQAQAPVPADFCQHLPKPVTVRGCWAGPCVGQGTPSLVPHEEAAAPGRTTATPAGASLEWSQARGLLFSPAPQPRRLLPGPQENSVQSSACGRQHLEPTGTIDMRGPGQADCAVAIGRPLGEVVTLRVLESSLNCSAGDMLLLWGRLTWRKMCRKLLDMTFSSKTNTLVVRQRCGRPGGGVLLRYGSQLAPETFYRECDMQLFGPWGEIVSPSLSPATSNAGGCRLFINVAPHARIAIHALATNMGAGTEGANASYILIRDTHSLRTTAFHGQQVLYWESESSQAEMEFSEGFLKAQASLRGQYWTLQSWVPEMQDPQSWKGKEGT
Procedure: In these experiments, FRETS-rVWF71 cleavage by plasma ADAMTS13 (50 μL) was assessed in 200 μL reactions containing 50 mM HEPES, pH 7.4, 10 mM CaCl2, 150 mM NaCl, and 0.05% Tween-20, and varying concentrations of FRETS-rVWF71. The concentration of ADAMTS13 in PNP is ˜1.03 μg/ml (Feys, H. B., et al. J. Thromb. Haemost 4:955-62, 2006), or ˜6 nM for a molecular mass of 170 kDa. For each concentration of substrate, the relationship between product fluorescence and concentration was determined directly by cleaving FRETS-rVWF71 to completion with excess recombinant ADAMTS13 MDTCS (Feys, H. B., et al. J. Thromb. Haemost. 7:2088-95, 2009) and measuring the fluorescence. Control assays contained plasma that was completely deficient in ADAMTS13. The initial velocities (nM/min) as a function of substrate concentration were fitted to the Michealis-Menten equation by nonlinear regression analysis (Prism, GraphPad).
(FIG. 6). […] (Anderson, P. J., et al. J. Biol. Chem. 281:850-7, 2006).

[2] = target: T2, ADAMTS13 (Homo sapiens, UniProt Q76LX8); experiment: ADAMTS13 inhibitor titer assay with FRETS-rVWF71 substrate; set-up: from tissue; host or cells: human plasma or serum (pooled normal plasma, healthy donors, TTP patients); settings: TTP patients with detectable inhibitor; printed 1.4-fold to >5-fold
T2 sequence (Q76LX8 75-1427): T1 sequence (Q76LX8 75-1427)
Procedure: Plasma samples with ADAMTS13 protease activity <10% were tested for the presence of an ADAMTS13 inhibitor. Plasma samples were serially diluted two-fold with assay buffer (50 mM HEPES, pH 7.4, 150 mM NaCl, 10 mM CaCl2, and 0.05% Tween-20) to yield 8 dilutions. In duplicate, PNP (50 μL) was mixed with an equal volume (50 μL) of undiluted test plasma and each serially diluted sample. Control conditions included PNP mixed with an equal volume of cleavage buffer. The microplate containing the samples was sealed with adhesive film (Sealplate, Excel Scientific, Victorville, Calif.) and incubated at 37° C. for 1 h. Reaction was initiated by addition of 100 μL of assay buffer containing 2 μM FRETS-rVWF71. Fluorescence emission was monitored and initial reaction rates were determined.
The inhibitor titer was determined by fitting the initial reaction rates to a four parameter logistic model or sigmoidal dose response equation by nonlinear regression (Prism): Rate(D)=[…]/(1+10^((log T−log D)*H)) […]
A fixed amount of ADAMTS13 in PNP (100 μL) was preincubated with serially diluted plasma samples and assayed for ADAMTS13 activity. Reaction rates were analyzed according to a model for competitive sigmoidal dose-response inhibition to obtain the dilution of plasma at which ADAMTS13 activity is decreased by 50%, and the inverse of the dilution is the inhibitor titer (FIG. 7C). […]

[3] = target: T2, ADAMTS13; experiment: Effect of bilirubin and hemoglobin on FRETS-rVWF71 ADAMTS13 assays; set-up: FRETS-rVWF71 cleavage by plasma ADAMTS13 (50 μL) was assessed in 200 μL reactions; from tissue; host or cells: human plasma or serum (pooled normal plasma, healthy donors, TTP patients); settings: >20 mg/dL (250 μM) conjugated bilirubin

Question: For “X1-GQAPNLVYMVTGC(X2)PASDEIRRLPGDIQVVPIGVGPNANVQELERIGWPNAPILIQDFETLPREAPDLVLQR [FRETS-rVWF71]”, which “decrease of the rate of catalysis relative to FRETS-VWF73” value ([1]; kcat compared with FRETS-VWF73) is on record?
Answer: ~8 fold

Question: What about the kcat ([1]; plasma ADAMTS13, 50 mM HEPES pH 7.4, 10 mM CaCl2, 150 mM NaCl, 30° C.) of the same substance?
Answer: 0.113 s⁻¹

Question: And the “inhibitor titers higher than with FRETS-VWF73” value [2]?
Answer: ≥ 1.4 fold

Question: What about the “sensitivity of assay to conjugated bilirubin” value [3] of the same substance?
Answer: insensitive
